{
  "source": "patent US6803369B1",
  "about": "“Compounds and methods for the treatment of neoplastic disease” (priority 2000, dated 2004)",
  "target": "complex between DNA gyrase and pBR322 DNA (Staphylococcus aureus, UniProt P0A0K8+P20831)",
  "sequence (P20831 whole entry)": "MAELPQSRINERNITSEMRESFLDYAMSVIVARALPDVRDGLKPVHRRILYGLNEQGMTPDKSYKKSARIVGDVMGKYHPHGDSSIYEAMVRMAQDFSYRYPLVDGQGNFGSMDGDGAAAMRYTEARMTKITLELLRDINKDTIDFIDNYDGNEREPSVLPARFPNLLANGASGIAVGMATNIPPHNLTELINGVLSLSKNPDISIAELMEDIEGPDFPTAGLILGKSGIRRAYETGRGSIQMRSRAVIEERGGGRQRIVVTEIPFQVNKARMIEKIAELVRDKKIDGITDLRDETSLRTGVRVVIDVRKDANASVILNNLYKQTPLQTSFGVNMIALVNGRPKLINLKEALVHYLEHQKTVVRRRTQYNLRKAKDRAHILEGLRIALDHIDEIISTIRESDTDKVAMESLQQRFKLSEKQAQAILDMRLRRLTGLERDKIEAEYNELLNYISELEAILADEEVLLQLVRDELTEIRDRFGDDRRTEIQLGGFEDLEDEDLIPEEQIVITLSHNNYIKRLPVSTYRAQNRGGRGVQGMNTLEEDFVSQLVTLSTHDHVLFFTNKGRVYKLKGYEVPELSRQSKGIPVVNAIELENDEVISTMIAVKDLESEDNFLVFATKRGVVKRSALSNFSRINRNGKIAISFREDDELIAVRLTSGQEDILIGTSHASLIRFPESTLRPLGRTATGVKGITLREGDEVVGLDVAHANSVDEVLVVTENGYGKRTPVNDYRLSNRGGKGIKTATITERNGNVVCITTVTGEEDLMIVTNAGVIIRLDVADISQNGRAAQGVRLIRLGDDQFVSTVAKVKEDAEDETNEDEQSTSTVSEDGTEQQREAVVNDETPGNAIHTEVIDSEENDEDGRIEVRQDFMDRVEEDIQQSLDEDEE",
  "sequence (P0A0K8 whole entry)": "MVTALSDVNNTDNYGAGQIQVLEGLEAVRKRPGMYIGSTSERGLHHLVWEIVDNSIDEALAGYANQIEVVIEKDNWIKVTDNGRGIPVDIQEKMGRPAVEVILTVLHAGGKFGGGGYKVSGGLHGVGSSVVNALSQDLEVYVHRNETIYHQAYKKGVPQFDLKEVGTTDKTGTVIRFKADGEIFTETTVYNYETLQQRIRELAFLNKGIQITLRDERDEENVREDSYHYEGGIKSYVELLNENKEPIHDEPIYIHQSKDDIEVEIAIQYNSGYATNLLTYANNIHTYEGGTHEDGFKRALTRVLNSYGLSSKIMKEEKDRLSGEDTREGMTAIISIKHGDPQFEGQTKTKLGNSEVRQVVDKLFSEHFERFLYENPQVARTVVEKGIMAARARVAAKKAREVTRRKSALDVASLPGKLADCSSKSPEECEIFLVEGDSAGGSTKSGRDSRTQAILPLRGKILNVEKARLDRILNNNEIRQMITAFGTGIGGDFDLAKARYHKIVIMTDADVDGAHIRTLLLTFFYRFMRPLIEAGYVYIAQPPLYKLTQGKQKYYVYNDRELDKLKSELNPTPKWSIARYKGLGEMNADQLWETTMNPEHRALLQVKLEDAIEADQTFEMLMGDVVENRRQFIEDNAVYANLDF",
  "assay": "Binding assay demonstrating ternary complex formation (SEC with HPLC/MS detection)",
  "parameters": "species or system S. aureus",
  "text": "The above-defined compounds are an exemplary class of compounds, which display the attributes of the claimed compounds of this invention, that is, they act primarily by inhibition of topoisomerase. While the compounds and methods of the invention are directed to eukaryotic, particularly mammalian topoisomerase inhibition, bacterial DNA gyrase was used to illustrate the mechanism of action. The evidence, provided by bacterial enzyme, for such biological activity includes the fact that selective resistance to the compounds is associated with point mutations in Staphylococcus aureus GyrA and B subunits. Further, Escherichia coli and S. aureus DNA gyrase supercoiling activity is inhibited in vitro by the compounds. A ternary complex has been isolated which is composed of pBR322 relaxed circular DNA, S. aureus DNA gyrase, and test compounds. […] The compounds of the invention also show antagonism of ciprofloxacin-induced cleavage of linear DNA.\nAn excess of test compound is added, typically as a mixture of three ligands, and after incubation the excess compound is separated from the resulting DNA:gyrase complex using size exclusion chromatography (SEC), with reverse phase HPLC and on-line MS detection to identify and quantify the bound compound.",
  "data": [
    {"compound": "CCCCCCCN1CCN(C[C@H](O)c2ccnc3ccc(OC)cc23)C[C@H]1CO.O=C(O)C(=O)O.O=C(O)C(=O)O", "note": "[SB366676-AY, [2S]-1-Heptyl-4-[2-(R)-hydroxy-2-(6methoxyquinolin-4-yl)ethyl]-2-hydroxymethylpiperazine dioxalate]", "values": [
      {"measurement": "detection in the high molecular weight fraction on the SEC column", "setting": "DNA gyrase + pBR322 DNA, clear resolution from excess ligand", "value": "detected in the high molecular weight fraction"},
      {"measurement": "binding detected in mixture of ligands", "setting": "in the presence of SB369890 and BRL26172CC", "value": "Only binding of SB366676-AY"},
      {"measurement": "stoichiometry: molecules bound to each gyrase:DNA complex", "setting": "stoichiometry studies", "value": "two"}
    ]}
  ]
}
